Values of other authors, collected in paper PMC6467724 (Journal of medicinal chemistry, 2018).

Assays:
[1] = mice, 40 mg/kg oral dose; cited from earlier work
[2] = cited from earlier work

Q: For `CC[C@@H]([C@H](C)O)n1ncn(-c2ccc(N3CCN(c4ccc(OC[C@@H]5CO[C@@](Cn6cncn6)(c6ccc(F)cc6F)C5)cc4)CC3)cc2)c1=O` [posaconazole], which “Maximal reported plasma concentration” value [1] is on record?
A: 6 µM

Q: And the “Maximal concentration detected in humans, fold lower than in mice” value [2]?
A: 5 to 10 fold
